Results: patent publication US20150056209A1, “PEPTIDE MIMOTOPES TO OXIDATION SPECIFIC EPITOPES” (The Regents of the University of California, priority 2012, published 2015)
Bridges are numbered along the chain shown (N, C = ends). Where no end group is shown, it is not given here.

How the values were obtained:
[1] = tested on: LRO4; assay: Competition immunoassays for LRO4 binding; set-up: species or system murine; conditions: 0.5 μg/mL LRO4, increasing concentrations of soluble competitor; for competition for LRO4 binding to captured biotinylated P1: 100 ng/mL captured P1; for competition for LRO4 binding to captured biotinylated P2: 100 ng/mL captured P2; for competition for LRO4 binding to coated MAA-BSA: 0.5 μg/mL coated MAA-BSA
Experimental: (§1) The specific binding of LRO4 to mimotopes was determined by competition immunoassays. Fifty μl of 0.5 μg/mL MAA-BSA or 100 ng/mL of biotinylated peptides were plated as described above. LRO4 antibody was incubated in TBS-1% BSA with or without increasing concentrations of competitors (BSA, MAA-BSA, P1, P2 and control peptide) for 30 minutes at RT. Binding of LRO4 was determined by chemiluminescent ELISA. The specificity of human plasma Ab binding to P1 was determined in a similar manner. In preliminary experiments, aliquots of pooled plasma samples (n=26) from a published cohort of healthy subjects were diluted in 1% BSA-TBS to yield a limiting plasma dilution. Diluted plasma (1:1,000) and increasing concentrations of competitors were incubated overnight at 4° C. Samples were then centrifuged at 15,800 g for 45 minutes at 4° C. to pellet immune complexes, and supernatants were analyzed for binding to plated P1 (10 μg/mL) by chemiluminescent ELISA.

[2] = tested on: apoptotic Jurkat T-cells; assay: Flow cytometry, LRO4 binding to apoptotic Jurkat T-cells; type: cell-based; conditions: UV-induced apoptotic Jurkat T-cells; increasing concentrations of soluble peptide
Experimental: Binding of LRO4 IgM to apoptotic Jurkat T-cells was assessed by flow cytometry. Apoptosis of Jurkat cells was induced by UV irradiation (UV Stratalinker, Stratagene, USA) at 20 mJ/cm^2, followed by further incubation of the cells in serum free medium for 14-16 hours. After washing in FACS buffer (PBS with 0.1% BSA) 10^6 cells were incubated with 1 μg LRO4 in 100 μl FACS buffer for 30 minutes at 4° C. In parallel experiments, cells were incubated with LRO4 in the presence of increasing concentrations of P1, P2, and an irrelevant control peptide. Following a washing step, cells were stained with FITC-labeled anti-mouse IgM (II/41, BD Biosciences-Pharmingen) in 100 μL staining buffer for 30 minutes at 4° C. in darkness and washed again. Thereafter, cells were incubated with PE-labeled Annexin-V and 7-AAD (BD Bioscience-Pharmingen) in Annexin-V binding buffer for 15 minutes and immediately analyzed by flow cytometry using a BD LSR II analyzer (BD Bioscience, San Jose, Calif., USA). More than 5.0×10^4 cells were acquired per sample, and data analysis was performed using FlowJo software (Tree Star Inc, San Carlos, Calif., USA).

[3] = tested on: human MDA-specific IgG Fab IK17; assay: ELISA for binding of the human monoclonal Fab IK17; conditions: antigens coated; biotinylated IK17 at increasing concentrations
Experimental: ELISA for binding of the human monoclonal Fab IK17. P1, P2, and MAA-BSA were coated onto microtiter plates, and biotinylated IK17 (Biot.IK17) was added at indicated concentrations. Binding was detected by chemiluminescent detection using AP-conjugated neutravidin. Values are given as relative light units (RLU) per 100 ms and represent the mean±SD of triplicate determinations.
(§2) Binding of mAb as well as plasma Abs to respective antigens was measured by chemiluminescent ELISA. Antigens were coated at 5 μg/mL in PBS/EDTA (pH 7.4). Synthetic peptides were directly coated at 10 μg/mL (P1) or 5 μg/mL (P2) in 0.1M NaHCO3 buffer (pH 8.6), unless indicated differently. Biotinylated peptides were immobilized at indicated concentrations in 0.1M NaHCO3 buffer (pH 8.6) on wells pre-coated with 10 μg/mL neutravidin (Pierce, Rockford, Ill., USA). Ab binding was measured using alkaline phosphatase (AP) labeled secondary Abs (described below) followed by chemiluminescent detection. For the detection of human autoAbs, a 1:400 plasma dilution was used. For human assays, internal controls consisting of high and low standard plasma samples were included on each microtiter plate to detect potential variations between microtiter plates. The intra-assay coefficients of variation for all assays were 10 to 14%.
(§3) The following secondary Abs were used: Alkaline Phosphatase (AP)-labeled goat anti-mouse IgM (μ-chain specific), IgG (γ-chain specific), IgG1 (Sigma-Aldrich) and IgG2c (Southern Biotech). For the detection of human autoAbs AP-labeled goat anti human IgG (γ-chain specific) and IgM (μ-chain specific) (Sigma-Aldrich) were used. Biotin-conjugated Abs were detected with AP-conjugated neutravidin (1:10,000; Pierce).

[4] = tested on: human plasma IgM and IgG Abs; assay: Immunocompetition assay, human plasma Ab binding to plated P1; conditions: pooled human plasma 1:1,000; increasing concentrations of soluble competitor
Experimental: as §1

[5] = tested on: LRO4; assay: Chemiluminescent ELISA, binding of LRO4 to plated or captured peptides; set-up: species or system murine; conditions: peptides directly plated at increasing concentrations; LRO4 5 μg/mL
Experimental: as §2, §3

[6] = tested on: PC-specific IgM mAb EO6; assay: Chemiluminescent ELISA, binding of EO6 to plated peptides; set-up: species or system murine; conditions: EO6 5 μg/mL; peptides coated at 5-10 μg/mL
Experimental: (A) ELISA for the binding of LRO4 to BSA, MAA-BSA, the P2 mimotope (ACNNSNMPLC-GGGS) (SEQ ID NO:3) and a scrambled peptide (ACSPNLNMNC-GGGS) (SEQ ID NO:4) of P2 (Scr.P2). Peptides were coated at 20 μg/ml, BSA and MAA-BSA at 5 μg/ml, and binding of indicated concentrations of LRO4 was determined by chemiluminescent ELISA as described in Methods. (B) ELISA for binding of LRO4 and EO6. P1, P2, BSA, MAA-BSA, nLDL, MDA-LDL, and CuOx-LDL were coated at 5-10 μg/mL. Binding of LRO4 and EO6 (both at 5 μg/mL) was determined by chemiluminescent ELISA. (C) Immunocompetition assay for the specificity of LRO4. Binding of 0.5 μg/mL LRO4 to 100 ng/mL captured biotinylated peptides P2 was measured by ELISA in the presence of increasing concentrations of P2 and scrambled P2. […]
Binding of mAb as well as plasma Abs to respective antigens was measured by chemiluminescent ELISA. […] Ab binding was measured using alkaline phosphatase (AP) labeled secondary Abs (described below) followed by chemiluminescent detection. […]

[7] = tested on: human plasma IgG and IgM autoAbs; assay: Chemiluminescent ELISA of human plasma autoAbs to coated mimotopes; type: binding; conditions: n=18 healthy volunteers, plasma 1:400
Experimental: as §2, with “For human assays, internal controls consisting of high and low standard plasma samples were included on each microtiter plate to detect potential variations between microtiter plates. The intra-assay coefficients of variation for all assays were 10 to 14%.” left out
The following secondary Abs were used: Alkaline Phosphatase (AP)-labeled goat anti-mouse IgM (μ-chain specific), IgG (γ-chain specific), IgG1 (Sigma-Aldrich) and IgG2c (Southern Biotech). […] Biotin-conjugated Abs were detected with AP-conjugated neutravidin (1:10,000; Pierce).
Human plasma samples from two independent studies were analyzed for the presence of anti-peptide Abs. […] For these studies, autoAb titers to MDA-LDL as the antigen have already been reported, to allow ready comparisons to the new data generated here. […]
Statistical analyses were performed with GraphPad Prism 5 for Windows (Graphpad Software, Inc., San Diego, Calif.). […] For continuous variables, differences were evaluated by one-way analysis of variances (ANOVA). […]

Row | Substance | competition for LRO4 binding to captured biotinylated P1 [1] | competition for LRO4 binding to captured biotinylated P2 [1] | inhibition of LRO4 binding to apoptotic cells [2] | competition for LRO4 binding to coated MAA-BSA [1] | binding of IK17 [3] | inhibition of binding of IgM and IgG Abs to plated P1 [4] | binding of LRO4 to plated peptides [5] | binding of EO6 to plated peptides [6] | IgG and IgM titers in plasma of healthy volunteers [7]
1 | IMGVGAVGAGAI (Control peptide) [irrelevant control peptide, reference compound] | had no effect | had no effect | not | – | – | – | – | – | –
2 | MAA-BSA: malondialdehyde-acetaldehyde (MAA)-modified BSA [reference compound] | fully competed | fully competed | – | effectively competed | bound | nearly completely inhibited | – | – | –
3 | ACNNSNMPLC (disulfide 2-10 (inferred); not fully specified (C-terminus)) [P2] | fully competed | fully competed | fully inhibited | effectively competed | in a dose-dependent manner | – | bound by LRO4 in a dose dependent manner | did not react | Plasma of all individuals contained both IgG and IgM titers
4 | HSWTNSWMATFL (not fully specified (C-terminus)) [P1] | did not compete | did not compete | – | did not have an effect | in a dose-dependent manner | – | bound by LRO4 in a dose dependent manner | did not react | Plasma of all individuals contained both IgG and IgM titers
